{
  "source": "paper PMC3603449",
  "about": "“The affinity purification and characterization of ATP synthase complexes from mitochondria” (Open Biology, 2013)",
  "target": "T1, bovine F1Fo-ATPase (F-ATP synthase), F1 catalytic site (Bos taurus, UniProt P00829+P19483)",
  "T1 construct": "gene ATP5F1B; native purification from heart mitochondria; with ATP synthase F(1) complex subunit gamma, mitochondrial; ATP synthase F(1) complex subunit delta, mitochondrial; ATP synthase F(1) complex subunit epsilon, mitochondrial; ATP synthase F(0) complex subunit C1, mitochondrial (subunit c); ATP synthase F(0) complex subunit a; ATP synthase subunit O, mitochondrial (OSCP); ATP synthase F(0) complex subunit B1, mitochondrial (subunit b); ATP synthase subunit d, mitochondrial; ATP synthase-coupling factor 6, mitochondrial (F6); ATP synthase protein 8 (A6L); ATP synthase subunit e, mitochondrial; ATP synthase subunit f, mitochondrial; ATP synthase subunit g, mitochondrial",
  "assay": "ATP synthesis in proteoliposomes with bacteriorhodopsin, luciferin-luciferase",
  "type": "biochemical",
  "settings": "turnover only; phosphate, pH 7.4, white light, I1-60GFP present",
  "data": [
    {"smiles": "Nc1ncnc2c1ncn2[C@@H]1O[C@H](COP(=O)(O)OP(=O)(O)O)[C@@H](O)[C@H]1O", "note": "[ADP]", "values": [
      {"measurement": "ATP synthesis in proteoliposomes with bacteriorhodopsin, luciferin-luciferase", "result": "On illumination with white light, ATP was synthesized in a linear manner"}
    ]}
  ]
}
